Results from ChEMBL document CHEMBL1201862, “PubChem BioAssay data set” (2004).
Calls of active or inactive are those of the source.

Assays:
[1] = target: G-protein coupled receptor 55 (Homo sapiens, UniProt Q9Y2T6); assay: inhibition of LPI-stimulated GPR55 beta-arrestin translocation – imaging, U2OS, beta-arrestin-GFP, LPI agonist, primary screen (AID 2013); type: functional;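 further: antagonist potency measured as reduced agonist-driven arrestin aggregation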
[2] = target: DNA dC->dU-editing enzyme APOBEC-3A (Homo sapiens, UniProt P31941); assay: Dose Response confirmation of small molecule APOBEC3A DNA Deaminase Inhibitors via a fluorescence-based single-stranded DNA deaminase assay. [Related pubchem assays (depositor defined):AID493011, AID493024]; type: functional
[3] = target: DNA dC->dU-editing enzyme APOBEC-3G (Homo sapiens, UniProt Q9HC16); type: functional;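 further: Dose-response counterscreen measuring inhibition of APOBEC3G DNA deaminase activity, run while confirming APOBEC3A inhibitors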
[4] = target: Potassium voltage-gated channel subfamily KQT member 2 (Rattus norvegicus, UniProt O88943); assay: potentiation of rat KCNQ2 current – cell-based, retigabine-insensitive compounds, dose response (AID 2654); type: functional
[5] = viability of uninfected HEp-2 cells – cell-based, HTS, cytotoxicity control for RSV inhibitor project, dose response (AID 2410); type: functional; conditions: human respiratory syncytial virus
Vero [6] = assay: cells; type: functional, cell-based; conditions: Chlorocebus sabaeus
Vero [7] = assay: cells; type: functional; conditions: Chlorocebus sabaeus
cells [8] = assay: cells
[9] = target: T1, RNA-binding protein pos-1 (Caenorhabditis elegans, UniProt G5EF15); assay: disruptors of C. elegans POS-1 RNA interaction – biochemical, fluorescence polarization, dose response (AID 1964);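 further: purified POS-1 fused to maltose binding protein made in E. coli; potency of compounds blocking POS-1 binding to fluorescent RNA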
T1 sequence (G5EF15 whole entry): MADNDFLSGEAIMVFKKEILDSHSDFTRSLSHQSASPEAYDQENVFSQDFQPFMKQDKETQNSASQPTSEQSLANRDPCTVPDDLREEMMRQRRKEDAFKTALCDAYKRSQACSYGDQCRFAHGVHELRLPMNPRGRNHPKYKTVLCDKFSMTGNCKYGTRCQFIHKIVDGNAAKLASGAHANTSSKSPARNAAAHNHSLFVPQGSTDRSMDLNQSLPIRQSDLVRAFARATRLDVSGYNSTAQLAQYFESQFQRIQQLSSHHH

[10] = target: T2, Zinc finger protein mex-5 (Caenorhabditis elegans, UniProt Q9XUB2); assay: potency of MEX-5 RNA-binding blockers – biochemical, C. elegans, fluorescence polarization, dose response (AID 1960)
T2 sequence (Q9XUB2 whole entry): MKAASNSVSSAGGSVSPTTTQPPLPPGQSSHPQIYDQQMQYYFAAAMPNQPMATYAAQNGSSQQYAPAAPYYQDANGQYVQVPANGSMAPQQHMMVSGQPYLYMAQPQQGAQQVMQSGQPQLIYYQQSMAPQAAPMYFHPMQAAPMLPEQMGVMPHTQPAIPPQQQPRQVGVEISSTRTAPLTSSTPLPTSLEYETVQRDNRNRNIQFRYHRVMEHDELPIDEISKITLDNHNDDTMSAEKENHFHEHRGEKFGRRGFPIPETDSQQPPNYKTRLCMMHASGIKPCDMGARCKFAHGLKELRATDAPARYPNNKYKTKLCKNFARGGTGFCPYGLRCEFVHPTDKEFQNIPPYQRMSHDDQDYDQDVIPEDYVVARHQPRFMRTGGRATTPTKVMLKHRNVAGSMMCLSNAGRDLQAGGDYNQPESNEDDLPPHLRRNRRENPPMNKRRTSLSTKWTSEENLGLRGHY

[11] = target: T3, Histone-lysine N-methyltransferase NSD2 (Homo sapiens, UniProt O96028); type: biochemical
T3 sequence (O96028 whole entry): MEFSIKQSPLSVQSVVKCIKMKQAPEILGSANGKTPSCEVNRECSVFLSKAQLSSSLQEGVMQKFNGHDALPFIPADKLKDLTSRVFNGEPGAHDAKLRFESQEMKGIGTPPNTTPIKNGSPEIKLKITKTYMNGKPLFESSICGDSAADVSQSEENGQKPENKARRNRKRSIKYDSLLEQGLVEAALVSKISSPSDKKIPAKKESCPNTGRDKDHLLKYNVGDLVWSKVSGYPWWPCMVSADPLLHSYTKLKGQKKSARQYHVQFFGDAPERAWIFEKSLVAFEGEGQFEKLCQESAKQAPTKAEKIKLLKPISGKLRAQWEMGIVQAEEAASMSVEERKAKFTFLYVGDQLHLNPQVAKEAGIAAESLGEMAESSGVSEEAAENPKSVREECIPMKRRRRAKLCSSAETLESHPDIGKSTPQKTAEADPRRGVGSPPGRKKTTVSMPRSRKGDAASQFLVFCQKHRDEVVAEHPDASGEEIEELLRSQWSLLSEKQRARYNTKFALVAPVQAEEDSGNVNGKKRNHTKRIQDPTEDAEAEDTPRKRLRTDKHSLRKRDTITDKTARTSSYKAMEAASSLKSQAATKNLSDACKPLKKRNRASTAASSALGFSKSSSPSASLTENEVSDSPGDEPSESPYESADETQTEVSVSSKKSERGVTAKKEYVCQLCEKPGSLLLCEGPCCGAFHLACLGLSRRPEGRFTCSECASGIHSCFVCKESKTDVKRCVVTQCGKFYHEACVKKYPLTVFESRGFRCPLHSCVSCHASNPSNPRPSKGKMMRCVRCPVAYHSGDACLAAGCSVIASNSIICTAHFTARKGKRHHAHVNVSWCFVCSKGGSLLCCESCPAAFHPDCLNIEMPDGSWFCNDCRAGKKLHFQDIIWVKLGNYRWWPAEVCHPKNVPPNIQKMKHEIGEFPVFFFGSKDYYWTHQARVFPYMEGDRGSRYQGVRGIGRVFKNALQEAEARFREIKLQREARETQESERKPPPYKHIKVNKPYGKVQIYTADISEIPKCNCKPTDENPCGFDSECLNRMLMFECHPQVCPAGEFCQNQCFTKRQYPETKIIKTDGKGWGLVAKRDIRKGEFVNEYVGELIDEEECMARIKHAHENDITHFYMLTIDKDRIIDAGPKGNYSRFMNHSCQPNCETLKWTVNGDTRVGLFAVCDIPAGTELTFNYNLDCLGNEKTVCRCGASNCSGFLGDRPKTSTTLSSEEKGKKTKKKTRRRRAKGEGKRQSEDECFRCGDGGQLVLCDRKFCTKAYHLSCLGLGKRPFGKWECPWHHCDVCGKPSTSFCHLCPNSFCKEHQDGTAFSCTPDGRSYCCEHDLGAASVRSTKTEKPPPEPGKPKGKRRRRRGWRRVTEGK

cells [12] = type: functional, cell-based
cells [13] = type: functional, cell-based; remark: listed apart in the source
[14] = target: DNA damage-inducible transcript 3 protein (Mus musculus, UniProt P35639); type: functional, Cricetulus griseus
[15] = target: Luciferin 4-monooxygenase (Photinus pyralis, UniProt P08659); assay: Counter Screen for Luciferase-based Assay Positives. [Related pubchem assays: 620, 618, 411 ]
HT-1080 = assay: HT1080 cell viability loss – fluorescence readout (AID 620); type: functional, cell-based; conditions: Homo sapiens
Mucolipin-3 = target: T4, Mucolipin-3 (Homo sapiens, UniProt Q8TDD5); assay: Dose response cell-based high-throughput screening assay for agonists of the transient receptor potential channel ML3 (TRPML3). [Related pubchem assays: 1526, 1424, 1448 ]; type: functional
T4 sequence (Q8TDD5 whole entry): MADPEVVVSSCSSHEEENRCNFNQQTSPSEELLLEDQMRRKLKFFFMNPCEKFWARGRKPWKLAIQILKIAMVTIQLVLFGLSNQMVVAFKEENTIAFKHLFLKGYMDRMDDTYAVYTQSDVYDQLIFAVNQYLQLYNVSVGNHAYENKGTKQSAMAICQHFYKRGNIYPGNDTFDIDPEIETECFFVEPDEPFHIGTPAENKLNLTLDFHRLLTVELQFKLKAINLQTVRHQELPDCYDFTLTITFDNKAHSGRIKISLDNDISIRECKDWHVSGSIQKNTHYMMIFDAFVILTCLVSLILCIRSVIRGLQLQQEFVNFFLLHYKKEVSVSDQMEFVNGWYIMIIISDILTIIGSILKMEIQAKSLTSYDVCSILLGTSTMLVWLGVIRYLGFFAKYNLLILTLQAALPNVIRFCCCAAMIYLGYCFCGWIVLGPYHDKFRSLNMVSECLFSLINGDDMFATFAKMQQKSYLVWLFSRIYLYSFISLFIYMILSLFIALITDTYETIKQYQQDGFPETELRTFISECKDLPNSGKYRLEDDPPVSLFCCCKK

Ion channel NompC = Ion channel NompC (Danio rerio, UniProt Q7T1G6); assay: Fluorescence counterscreen assay for TRPML3 agonists: dose response cell-based high-throughput screening assay to identify agonists of the transient receptor potential channel N1 (TRPN1). [Related pubchem assays: 1526, 1424, 1448 ]; type: functional
[16] = reduction of Shn3 3'UTR-driven luciferase in osteoblasts – cell-based, Clone20 osteoblasts, firefly luciferase, cherry-picked, dose response (AID 624132); type: functional;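 further: firefly luciferase luminescence from reporter carrying the Shn3 3'UTR in osteoblasts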
[17] = loss of viability in HepG2 cells – cell-based, CellTiter-Glo, cherry-picked, cytotoxicity control for Shn3 inhibitor project, dose response (AID 624134); type: functional
[18] = non-specific 3'UTR reporter inhibition in Clone20-Shn3RL – cell-based, Renilla luciferase, cherry-picked, counter-screen for Shn3 inhibitor project, dose response (AID 624133); type: functional
[19] = NIH-3T3 fibroblast cytotoxicity, dose response, cytotoxicity control, cell-based, fluorescence, Alamar Blue, secondary assay (AID 2327); type: functional;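 further: NIH-3T3 mouse fibroblasts cultured with fluconazole at 8 µg/mL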
HEK293 [20] = assay: inhibition of NOD1-driven NF-kB reporter – cell-based, luminescence, uHTS, primary screen (AID 1578); type: functional; conditions: Homo sapiens
HEK293 [21] = assay: cells; type: functional, cell-based; conditions: Homo sapiens
[22] = fluconazole-exposed Candida albicans growth modulators – fluorescence, retest, confirmation (AID 2467); type: functional, cell-based
HEK293 [23] = assay: cells; type: functional, cell-based; conditions: Homo sapiens; remark: listed apart in the source
HEK293 [24] = assay: NOD2 signaling inhibitors in MDP-stimulated cells, cell-based, uHTS, luminescence (AID 2001); type: functional; conditions: Homo sapiens
[25] = Trypanosoma cruzi growth suppression in host cells – NIH3T3 host cells, beta-gal luminescence, confirmation (AID 2044); type: functional, cell-based;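 further: intracellular parasites grown in NIH/3T3 mouse fibroblasts as host cells; luminescent beta-galactosidase reporter signal from transgenic T. cruzi replicating inside host cells; inhibitors lower the luminescence signal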
[26] = NIH3T3 cell viability loss – ATP luminescence, mouse fibroblasts, counter-screen, dose response (AID 2010); type: functional, cell-based;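 further: cells exposed to compound for about 90 hours before reading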
[27] = HEK-293T viability loss after treatment – luminescence, T-cell screen hits, cytotoxicity control for TCR NF-kB inhibitor project, dose response (AID 489026); type: functional, cell-based;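 further: cells exposed to compound about 14 hours before the viability readout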
[28] = target: FAD-linked sulfhydryl oxidase ALR (Homo sapiens, UniProt P55789); assay: ALR-catalysed DTT oxidation blockers – biochemical, H2O2 detection, luminescence, cherry-pick, dose response (AID 493248)
FAD-linked sulfhydryl oxidase ALR, sequence (P55789 whole entry): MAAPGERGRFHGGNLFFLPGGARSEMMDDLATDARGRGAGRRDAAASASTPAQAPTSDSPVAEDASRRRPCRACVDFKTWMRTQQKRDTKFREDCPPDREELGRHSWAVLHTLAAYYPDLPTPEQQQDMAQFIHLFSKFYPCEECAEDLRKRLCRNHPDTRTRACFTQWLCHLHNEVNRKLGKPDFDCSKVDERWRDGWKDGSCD

Potassium voltage-gated channel subfamily KQT member 2, sequence (O88943 whole entry): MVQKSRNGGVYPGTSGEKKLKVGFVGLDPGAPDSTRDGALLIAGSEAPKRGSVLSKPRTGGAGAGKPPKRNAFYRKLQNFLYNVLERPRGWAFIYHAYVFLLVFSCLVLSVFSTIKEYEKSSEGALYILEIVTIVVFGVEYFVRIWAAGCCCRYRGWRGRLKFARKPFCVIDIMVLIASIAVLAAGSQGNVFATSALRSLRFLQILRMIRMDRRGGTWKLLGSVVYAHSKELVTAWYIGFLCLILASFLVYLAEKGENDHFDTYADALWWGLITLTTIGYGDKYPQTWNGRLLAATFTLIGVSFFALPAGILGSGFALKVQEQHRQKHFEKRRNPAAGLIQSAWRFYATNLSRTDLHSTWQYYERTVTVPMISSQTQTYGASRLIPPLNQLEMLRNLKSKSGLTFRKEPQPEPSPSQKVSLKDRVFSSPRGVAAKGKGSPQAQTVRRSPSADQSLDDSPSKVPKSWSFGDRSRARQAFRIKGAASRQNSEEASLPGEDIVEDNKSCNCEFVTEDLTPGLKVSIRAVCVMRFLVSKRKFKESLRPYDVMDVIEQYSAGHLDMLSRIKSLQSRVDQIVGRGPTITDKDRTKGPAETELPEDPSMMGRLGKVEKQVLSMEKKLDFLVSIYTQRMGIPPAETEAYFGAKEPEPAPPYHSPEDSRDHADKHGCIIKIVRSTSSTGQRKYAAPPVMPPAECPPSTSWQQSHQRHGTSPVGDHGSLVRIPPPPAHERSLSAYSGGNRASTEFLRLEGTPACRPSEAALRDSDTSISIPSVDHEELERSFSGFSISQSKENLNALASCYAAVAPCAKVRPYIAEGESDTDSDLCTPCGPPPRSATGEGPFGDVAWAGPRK
DNA dC->dU-editing enzyme APOBEC-3A, sequence (P31941 whole entry): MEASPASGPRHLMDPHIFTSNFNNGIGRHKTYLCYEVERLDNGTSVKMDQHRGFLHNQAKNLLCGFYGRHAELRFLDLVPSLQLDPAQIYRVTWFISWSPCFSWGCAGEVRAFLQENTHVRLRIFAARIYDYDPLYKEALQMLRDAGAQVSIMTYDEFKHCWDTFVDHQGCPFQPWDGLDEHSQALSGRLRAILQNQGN
DNA dC->dU-editing enzyme APOBEC-3G, sequence (Q9HC16 whole entry): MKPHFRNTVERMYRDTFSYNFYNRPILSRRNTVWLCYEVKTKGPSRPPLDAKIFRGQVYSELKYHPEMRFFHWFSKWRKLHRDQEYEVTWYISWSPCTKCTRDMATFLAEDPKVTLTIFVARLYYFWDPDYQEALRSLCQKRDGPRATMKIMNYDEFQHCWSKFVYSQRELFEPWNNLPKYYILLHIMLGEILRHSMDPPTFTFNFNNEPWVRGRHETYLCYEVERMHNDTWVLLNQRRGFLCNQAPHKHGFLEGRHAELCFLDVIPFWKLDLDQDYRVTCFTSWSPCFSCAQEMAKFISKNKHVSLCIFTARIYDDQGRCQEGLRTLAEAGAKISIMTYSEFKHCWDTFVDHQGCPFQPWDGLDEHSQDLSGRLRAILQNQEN
G-protein coupled receptor 55, sequence (Q9Y2T6 whole entry): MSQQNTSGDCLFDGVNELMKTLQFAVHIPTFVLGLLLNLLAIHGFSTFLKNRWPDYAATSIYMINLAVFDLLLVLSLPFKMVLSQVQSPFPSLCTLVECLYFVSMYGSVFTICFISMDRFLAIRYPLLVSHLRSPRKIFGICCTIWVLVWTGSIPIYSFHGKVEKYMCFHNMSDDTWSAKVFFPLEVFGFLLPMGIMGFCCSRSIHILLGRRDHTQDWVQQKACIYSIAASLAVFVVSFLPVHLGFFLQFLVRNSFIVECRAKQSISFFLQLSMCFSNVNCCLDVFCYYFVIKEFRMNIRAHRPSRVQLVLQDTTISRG
Ion channel NompC, sequence (Q7T1G6 whole entry): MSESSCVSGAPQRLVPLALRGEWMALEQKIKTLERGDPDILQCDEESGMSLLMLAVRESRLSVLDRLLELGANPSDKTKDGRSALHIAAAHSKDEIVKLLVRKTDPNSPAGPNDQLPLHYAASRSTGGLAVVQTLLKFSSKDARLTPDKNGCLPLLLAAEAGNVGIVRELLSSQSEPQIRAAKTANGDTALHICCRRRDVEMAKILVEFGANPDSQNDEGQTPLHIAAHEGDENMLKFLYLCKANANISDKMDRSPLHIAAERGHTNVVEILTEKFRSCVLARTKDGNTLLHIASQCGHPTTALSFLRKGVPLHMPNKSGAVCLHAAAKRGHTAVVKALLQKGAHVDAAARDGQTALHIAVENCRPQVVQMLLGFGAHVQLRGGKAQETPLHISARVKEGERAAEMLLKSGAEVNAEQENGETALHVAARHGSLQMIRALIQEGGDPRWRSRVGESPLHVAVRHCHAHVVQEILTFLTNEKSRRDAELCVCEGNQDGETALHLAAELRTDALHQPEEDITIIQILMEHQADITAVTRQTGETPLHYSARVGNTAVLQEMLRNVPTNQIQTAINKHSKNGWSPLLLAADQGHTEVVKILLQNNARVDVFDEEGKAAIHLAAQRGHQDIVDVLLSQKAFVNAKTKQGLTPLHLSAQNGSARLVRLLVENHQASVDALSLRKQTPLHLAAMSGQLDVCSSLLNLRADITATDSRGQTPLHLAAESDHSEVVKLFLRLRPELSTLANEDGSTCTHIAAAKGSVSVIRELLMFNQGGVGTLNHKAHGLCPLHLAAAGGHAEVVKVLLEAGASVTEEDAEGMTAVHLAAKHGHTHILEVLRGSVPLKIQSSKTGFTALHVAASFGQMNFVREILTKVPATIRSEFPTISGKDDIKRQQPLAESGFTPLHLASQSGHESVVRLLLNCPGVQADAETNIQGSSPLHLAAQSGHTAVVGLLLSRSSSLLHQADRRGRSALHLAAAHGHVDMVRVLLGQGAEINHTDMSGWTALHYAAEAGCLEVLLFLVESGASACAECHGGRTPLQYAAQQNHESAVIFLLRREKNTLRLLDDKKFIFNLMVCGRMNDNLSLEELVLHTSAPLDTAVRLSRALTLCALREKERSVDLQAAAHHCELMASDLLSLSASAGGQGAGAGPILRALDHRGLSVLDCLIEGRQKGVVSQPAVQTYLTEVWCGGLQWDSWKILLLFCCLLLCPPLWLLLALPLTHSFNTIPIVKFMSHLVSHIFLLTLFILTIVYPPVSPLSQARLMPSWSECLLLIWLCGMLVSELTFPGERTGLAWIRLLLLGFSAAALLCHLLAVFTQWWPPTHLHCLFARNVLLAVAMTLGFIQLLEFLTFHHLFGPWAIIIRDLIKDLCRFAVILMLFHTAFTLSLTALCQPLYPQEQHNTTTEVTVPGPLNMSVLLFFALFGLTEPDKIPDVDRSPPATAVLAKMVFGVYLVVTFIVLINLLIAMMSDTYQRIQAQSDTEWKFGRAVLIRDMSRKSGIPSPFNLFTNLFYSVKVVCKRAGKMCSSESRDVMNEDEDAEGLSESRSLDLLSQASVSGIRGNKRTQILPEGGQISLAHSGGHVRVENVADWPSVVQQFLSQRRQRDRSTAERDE
DNA damage-inducible transcript 3 protein, sequence (P35639 whole entry): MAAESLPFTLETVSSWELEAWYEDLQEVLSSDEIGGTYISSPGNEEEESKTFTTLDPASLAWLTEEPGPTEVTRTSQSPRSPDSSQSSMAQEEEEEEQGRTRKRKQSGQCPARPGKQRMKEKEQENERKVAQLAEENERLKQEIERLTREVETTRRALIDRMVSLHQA
Luciferin 4-monooxygenase, sequence (P08659 whole entry): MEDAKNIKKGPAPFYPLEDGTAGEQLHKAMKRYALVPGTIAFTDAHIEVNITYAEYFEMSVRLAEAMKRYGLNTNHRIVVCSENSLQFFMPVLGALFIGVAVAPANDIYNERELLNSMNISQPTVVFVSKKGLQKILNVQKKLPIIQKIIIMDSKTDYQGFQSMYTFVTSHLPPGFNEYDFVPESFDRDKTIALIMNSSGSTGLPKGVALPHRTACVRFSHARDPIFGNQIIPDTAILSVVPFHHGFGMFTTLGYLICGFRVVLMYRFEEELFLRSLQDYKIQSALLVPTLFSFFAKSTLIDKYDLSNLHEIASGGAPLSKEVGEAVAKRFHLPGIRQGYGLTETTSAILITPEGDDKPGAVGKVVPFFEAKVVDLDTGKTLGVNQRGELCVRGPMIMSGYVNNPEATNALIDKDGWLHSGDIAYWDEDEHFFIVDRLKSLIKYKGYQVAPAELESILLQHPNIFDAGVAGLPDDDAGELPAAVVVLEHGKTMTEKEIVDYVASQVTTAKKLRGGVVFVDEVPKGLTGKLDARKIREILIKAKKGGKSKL

## CCCSc1ccc(-c2nn(-c3ccccc3)cc2/C=C(/C#N)C(=O)N2CCOCC2)cc1
[1]
  IC50: < 0.5 µM (active)

## O=C(CSc1nnnn1-c1ccccc1)Nc1ccc(N2CCOCC2)c(Cl)c1
[2]
  IC50: 6.63 µM (active)
[3]
  IC50: 9.68 µM (active)

## O=C(Nc1cccnc1)Nc1ccc2c(c1)OCO2
[4]
  EC50: 152 µM (active)

## Cc1cc(NC(=O)COC(=O)c2ccccc2S(=O)(=O)N(C)c2ccccc2)no1
[5]
  CC50: 34.1 µM (active)
Vero [6]
  IC50: > 25 µM (active)
Vero [7]
  CC50: > 25 µM (active)
Cells [8]
  IC50: 9.76 µM (active)

## Cc1ccc(CN2C(=O)N/C(=C\c3cccn3-c3cccc(C(=O)O)c3)C2=O)cc1
[9]
  EC50: > 300 µM (not active)
[10]
  EC50: > 300 µM (not active)
[2]
  IC50: 10.3 µM (active)
[3]
  IC50: 25.7 µM (active)
[11]
  AC50: 12.8 µM (active)

## CCC(Cc1ccccc1)n1c(=S)[nH]c2ccccc2c1=O (stereo unspecified)
Cells [12]
  EC50: > 350 µM (not active)
Cells [13]
  EC50: > 350 µM (not active)
[14]
  Absolute IC50 (CHOP): 10 µM

## Cc1ccc(-c2nc3cc(NC(=O)C(C)C)ccc3o2)cc1
[15]
  EC50: 0.23 µM (active)
HT-1080
  EC50: > 50 µM (not active)

## Cc1cc(N)n2nc(-c3ccccc3)c(-c3ccccc3)c2n1
[1]
  IC50: 2.35 µM (active)

## Cc1nc(NC(=O)c2csc3ccccc23)sc1C
Mucolipin-3
  EC50: 8.95 µM (active)
Ion channel NompC
  EC50: > 29.9 µM (not active)

## COc1ccccc1-c1cc(C(F)(F)F)nc(S(=O)(=O)CCCC(=O)Nc2cc(C)on2)n1
[14]
  Absolute IC50 (CHOP): 10 µM
[16]
  AC50: 6.57 µM (active)
[17]
  AC50: 28 µM (active)
[18]
  AC50: 16 µM (active)

## CC1CCN(S(=O)(=O)c2ccc(Br)s2)CC1
Mucolipin-3
  EC50: > 29.9 µM (not active)
Ion channel NompC
  EC50: > 29.9 µM (not active)

## Cc1cncc(NC(=O)Nc2cccc(F)c2)c1
[4]
  EC50: 12.4 µM (active)

## Cc1cc(NC(=O)Nc2cccc(F)c2)cnc1Br
[4]
  EC50: 6.61 µM (active)

## Cc1ccc(C=Cc2ccc(N(C)C)cc2)[n+](C)c1
[19]
  EC50: > 160 µM (inconclusive)
HEK293 [20]
  EC50: 4.84 µM (active)
HEK293 [21]
  IC50: 10.8 µM (active)
[22]
  EC50: 3.83 µM (active)
HEK293 [23]
  IC50: > 20 µM (inactive)
HEK293 [24]
  IC50: 16 µM (inactive)
[25]
  EC50: 0.232 µM (active)
[26]
  EC50: 16.1 µM (active)
[2]
  IC50: 3.16 µM (active)
[27]
  IC50: > 80 µM (inactive)
[28]
  AC50: 1.24 µM (active)
[3]
  IC50: 4.34 µM (active)
